In patent US20090186838A1, “Amphotericin Derivatives” (Eidgenössische Technische Hochschule Zürich, priority 2006, published 2009):
Values after ≈ are worked out from the molar mass of the structure shown.

Key:
DSY-294 C. albican CI = assay: MIC determination in Candida strain DSY-294; type: cell-based, Candida albicans; details: Candida albicans
Description: (§1) In Vitro Antifungal Activity. MIC values for various strains were determined in accordance with the standard protocol from the National Committee of Clinical Laboratory Standards but using YEPD liquid medium instead of RPMI-1640 medium (National Committee of Clinical Laboratory Standards (Reference Method for Broth Dilution Antifungal Susceptibility Testing of Yeast, M27-A2, Approved Standard-Second Edition, Volume 22, Number 15, 1995). AmB was used as a reference. The strains were cultivated overnight in 5 mL YEPD liquid medium at 30 to 37° C. (30° C. for the strain BY4741; 37° C. for the strain DSY1764) with constant shaking. The saturated cultures were diluted to an ODB600 of 0.1 (3×10P^7 cells/mL). Using 24 wells plate, each well was prepared by adding 1% (12 μL) of DMSO solution of the tested polyene macrolide with 1% (12 μL) yeast cells solution and completed with YEPD (1.176 mL). The plates were sealed with Parafilm and then incubated for 18 to 36 hours at 30 to 37° C. (18 hours at 30° C. for the strain BY4741; 36 hours at 37° C. for the strain DSY1764). The optical density was read at 600 nm using 1.5 mL cuvettes. The MIC value was defined as the drug concentration needed to inhibit growth, less than 5% compared to a drug-free culture.
(§2) MIC values of the polyene macrolides 3, 9 and 10 (Diamine-AmB and its ester and diamide derivative, respectively) in various Candida strains including an AmB-resistant strain C. albicans (DSY1764, with the genotype erg3AΔ::hisG/erg3BΔ::hisG erg11Δ::hisG/erg11Δ::hisG-URA3-hisG) were determined.

DSY-296 C. albican CI = assay: MIC determination in Candida strain DSY-296; type: cell-based, Candida albicans; details: Candida albicans
Description: as §1, §2

DSY-565 C. glabrata CI = assay: MIC determination in Candida strain DSY-565; type: cell-based; details: Nakaseomyces glabratus
Description: as §1, §2

[1] = test system: DSY-654 C. albican mutant cdr1/2; assay: MIC determination in Candida strain DSY-654; type: cell-based, Candida albicans; details: Candida albicans
Description: as §1, §2

[2] = test system: DSY-1764 C. albican mutant erg3/11 (AmB-resistant strain); assay: MIC determination in AmB-resistant Candida strain DSY-1764; type: cell-based, Candida albicans; details: Candida albicans, 36 h
Description: as §1, §2

human erythrocytes = assay: Hemolytic assay (EH50); type: cell-based; details: concentration that led to 50% hemolysis of human erythrocytes; one hour at 37° C.
Description: Hemolytic Assay. The hemotoxicity of the polyene macrolide derivatives of the invention was determined by measuring the toxicity towards human erythrocytes (EH50 value) using an established assay (Kinsky, S. C. et al., Biochem. Biophys. Res. Comm. 1962, 9, 503). Human blood, anticoagulated with citrate or EDTA, was centrifuged (2000×g) at 4° C. for 10 minutes. The pellets were washed three times with PBS buffer (pH 7.2 with 2 g/L glucose) and then diluted to a concentration of 4% (4×10^8 cells/mL). All experiments were done in triplo and the total volume for the hemolysis tubes was 1.4 ml. The solutions were prepared by adding 1% (14 μL) of DMSO solution of the tested compound with […] of PBS buffer and completed with 750 μL of 4% erythrocytes. After one hour incubation at 37° C., the samples were centrifuged (1500×g) at 4° C. for 5 min and the absorbance of the supernatant was measured at 560 nm. The concentration that led to 50% hemolysis (EH50) was intrapolated graphically. The value for the 100% hemolysis was obtained by the treatment with 100 μM of AmB.
The toxicity of AmB (1a) and the polyene macrolides 3, 9 and 10 towards human erythrocytes was examined using the above described hemolysis assay (Table 3).

Structure (SMILES)	MIC (DSY-294 C. albican CI)	MIC (DSY-296 C. albican CI)	MIC (DSY-565 C. glabrata CI)	MIC [1]	MIC [2]	EH50 (human erythrocytes)
COC(=O)[C@H]1[C@@H]2C[C@@H](O[C@@H]3O[C@H](C)[C@@H](O)[C@H](N(CCCN)CCCN)[C@@H]3O)/C=C/C=C/C=C/C=C/C=C/C=C/C=C/[C@H](C)[C@@H](O)[C@@H](C)[C@H](C)OC(=O)C[C@H](O)C[C@H](O)CC[C@@H](O)[C@H](O)C[C@H](O)C[C@](O)(C[C@@H]1O)O2 [compound 9, N,N-Di-(3-aminopropyl)-AmB Methyl Ester]	0.25 µM (≈ 0.263 µg/mL)	0.1 µM (≈ 0.105 µg/mL)	0.25 µM (≈ 0.263 µg/mL)	0.25 µM (≈ 0.263 µg/mL)	4 µM (≈ 4.21 µg/mL)	50 µM
C[C@@H]1[C@H](O)[C@@H](C)/C=C/C=C/C=C/C=C/C=C/C=C/C=C/[C@H](O[C@@H]2O[C@H](C)[C@@H](O)[C@H](N(CCCN)CCCN)[C@@H]2O)CC2O[C@](O)(C[C@@H](O)C[C@@H](O)[C@H](O)CC[C@@H](O)C[C@@H](O)CC(=O)O[C@H]1C)C[C@H](O)[C@H]2C(=O)NCCN [compound 10, 16-(N′-(2-Aminoethyl)-carboxamide)-N,N-di-(3-aminopropyl)-AmB]	1 µM (≈ 1.08 µg/mL)	0.75 µM (≈ 0.81 µg/mL)	0.5 µM (≈ 0.54 µg/mL)		4 µM (≈ 4.32 µg/mL)	30 µM
